Patent US6710084B2, “Inhibition of TNFα-initiated neutrophil response” (Brigham and Women's Hospital, priority 1999, dated 2004)

Key:
[1] = system: human PMN; assay: TNFα-stimulated superoxide anion generation by human PMN (cytochrome C reduction); assay type: cell-based; conditions: for inhibition of TNFα-stimulated superoxide anion generation: 10 nM compound, 5 min, then TNFα 50 ng/ml
Procedure: Human PMN were incubated with either vehicle alone or indicated concentrations of LXA4, 15 R/S-methyl-LXA4 or 16-phenoxy-LXA4 for 5 min and then with TNFα (50 ng/ml) for an additional 10 min. Values are the mean±SEM for LXA4 (n=3), 15 R/S-methyl-LXA4 (n=4) or 16-phenoxy-LXA4 (n=3).
Venous blood from healthy donors was collected using sterile conditions using acid citrate dextrose (ACD) as an anticoagulant, and PMN were isolated as in (15). PMN were suspended in cold (4° C.) Hank's medium (supplemented with 1.6 mM Ca^++, 0.1% FCS, 2 mM L-glutamine, 1% penicillin, and 2% streptomycin, pH 7.4). […] To examine superoxide production, PMN (1.0×10^6/ml) were placed at 37° C. (3 min) and then exposed to either vehicle (0.1% ethanol) or synthetic LXA4, 15R/S-methyl LXA4 or 16-phenoxy-LXA4 for 5 min at 37° C. Before adding TNFα (50 ng/ml), PMN were incubated with cytochrome C (0.7 mg/ml) for 10 min at 37° C. […] reduction of cytochrome C was terminated by rapidly placing tubes in an ice-water bath. The extent of cytochrome C reduction in each supernatant was determined at 550 nm in reference to control values obtained when superoxide dismutase was added before a stimulus or vehicle control. Cytochrome C reduction was quantitated using the extinction coefficient of 21.1/mmol/L.
TNFα, although a modest agonist of O2^−generation by human PMN, is a physiologically relevant stimulus for the generation of reactive oxygen species (ROS) by human PMN that can play critical roles in local tissue injury during both inflammation and reperfusion (Tsujii, M., S. Kawano, S. Tsuji, H. Sawaoka, M. Hori, and R. N. DuBois. 1998. Cyclooxygenase regulates angiogenesis induced by colon cancer cells. Cell 93:705-716; Shibuya, H., N. Ohkohchi, S. Tsukamoto, and S. Satomi. 1997. Tumor necrosis factor-induced, superoxide-mediated neutrophil accumulation in cold ischemic/reperfused rat liver. Hepatology 26:113-120; Jaeschke, H., A. Farhood, and C. W. Smith. 1990. Neutrophils contribute to ischemia/reperfusion injury in rat liver in vivo. FASEB J. 4:3355-3359). In FIG. 1, the impact of LXA4 and ATL related bioactive stable analogs were evaluated on TNFα stimulated superoxide anion production. […] 15R/S-methyl-LXA4 covers both LXA4 and ATL in structure, and 16-phenoxy-LXA4 is a LXA4 analog (see FIG. 1).

[2] = system: IL-1β; assay: TNFα-induced IL-1β release by human PMN; assay type: cell-based; conditions: for inhibition of IL-1β release: 100 nM compound, human PMN
Description: Supernatants were collected, and IL-1β was quantitated by ELISA. Results are expressed as mean±SD of duplicates, and are from one experiment representative of n=3. […] Values represent the mean ±SEM, n=3. At all time intervals tested, TNFα induced a significant appearance of IL-1β over vehicle-treated cells (*p<0.01).
(§1) Human and mouse recombinant TNFα and human recombinant GM-CSF were obtained from Boehringer Mannheim (Indianapolis, Ind.). Dulbecco's PBS (Mg^++ and Ca^++-free), RPMI-1640 and FCS were purchased from Bio Whittaker Inc. (Walkersville, Md.). Ficoll-Hypaque was from Organon Teknika Corp. (Durham, N.C.) and Hank's balanced salt solution was purchased from Gibco BRL (Grand Island, N.Y.). Serum bovine albumin, dextran, antibiotics, L-glutamine, cytochrome C, superoxide dismutase and zymosan were obtained from Sigma (St. Louis, Mo.). The assessment of human IL-1β in supernatants was performed by using an immunometric assay with acetylcholine esterase (Cayman Chemical, Ann Arbor, Mich.). Murine IL-1β was assessed using an ELISA from Endogen (Woburn, Mass.). ELISAs for IL-4 and IL-10 were from Amersham (Arlington Heights, Ill.); MIP-2 and IL-13 ELISAs were from R&D Systems (Minneapolis, Minn.). LXA4 and ATL metabolically stable analogs were prepared and characterized, including nuclear magnetic resonance spectroscopy, as in (14). Concentrations of each LX analog were determined using an extinction coefficient of 50,000 M^−1.cm^−1.just prior to each experiment. Where indicated, statistical analyses were performed using Student's non-paired t-test (two-tailed), and significance (*) was considered to be attained when P was <0.05.

[3] = system: IL-1β; assay: IL-1β levels in supernatants of PMN incubated with TNFα, GM-CSF or zymosan; assay type: cell-based, human
Description: as §1, with “<0.05. […]” for “<0.05.”

[4] = system: PMN; assay: PMA- or FMLP-stimulated O2- production by PMN; assay type: cell-based, human
[5] = system: MIP-2; assay: MIP-2 in murine air pouch exudates (ELISA); assay type: in vivo, BALB/c mice
Procedure: (§2) Experiments were conducted as described in FIG. 5 legend. Quantitation for IL-1β, IL-4, IL-10, IL-13 and MIP-2 was performed using ELISA with air pouch cell-free exudates. […] Changes in IL-1β, MIP-2 and IL-4 were significant at all tested time intervals (p<0.01).
as §1
(§3) Exudates from selected time intervals were collected and cell-free supernatants assessed for the presence of these murine cytokines. TNFα induced maximal detectable amounts of MIP-2 and IL-1β within 90 minutes (not shown). 15 R/S-methyl-LXA4 (25 mnoles) inhibited TNFα-stimulated MIP-2 and IL-1β release by 48% and 30% respectively (FIG. 6). […] This stimulation of IL-4 was observed both in the absence as well as presence of TNFα. Neither IL-10 nor IL-13 was detected within the pouch exudates.

[6] = system: IL-1β; assay: IL-1β in murine air pouch exudates (ELISA); assay type: in vivo, BALB/c mice
Procedure: as §2, §1, §3

[7] = system: leukocyte infiltration; assay: TNFα-induced leukocyte infiltration in murine air pouches
Procedure: One ml of sterile PBS containing either 0.1% ethanol, TNFα, 15 R/S-methyl-LXA4, or TNFα plus 15 R/S-methyl-LXA4 was injected into the pouches, and the exudates were collected at indicated time periods. The total number of leukocytes was counted as in Materials & Methods. The results are expressed as mean±SEM from three different mice for each point.
Six to eight week old male BALB/c mice were obtained from Taconic Farms (Germantown, N.Y.). Air pouches were raised on the dorsum by s.c. injection of 3 ml of sterile air on day 0 and day 3. All experiments were conducted on day 6 (16). Individual air pouches (one per mouse) were injected with either vehicle alone (0.1% ethanol), TNFα, 15 R/S-methyl-LXA4 or TNFα plus 15 R/S-methyl-LXA4, and each was suspended in 1 ml endotoxin-free PBS immediately before injection into pouch cavities. At given intervals, the mice were sacrificed and individual air pouches were lavaged three times with sterile PBS (1 ml). The exudates were centrifuged at 2000 RPM (5 min) and the supernatants were removed. Cell pellets were suspended in PBS (200 μl) for enumeration and assessed for viability. Fifty μl of each cell suspension was mixed with 150 μl 30% BSA and then centrifuged onto microscope slides at 500 RPM for 5 min using a cytospin centrifuge, air dried, and stained with Giemsa-Wright.
Also, inflammatory exudates were collected 4 h after injection with vehicle alone, TNFα, 15 R/S-methyl-LXA4 alone, or TNFα plus 15 R/S-methyl-LXA4, and cell types were enumerated.

[8] = system: IL-4; assay: IL-4 in murine air pouch exudates (ELISA); assay type: in vivo, BALB/c mice; conditions: both in the absence as well as presence of TNFα
Procedure: as §2
as §1, with “ELISAs for IL-4 and IL-10 were from Amersham (Arlington Heights, Ill.); MIP-2 and IL-13 ELISAs were from R&D Systems (Minneapolis, Minn.). LXA4 and ATL metabolically stable analogs were prepared and characterized, including nuclear magnetic resonance spectroscopy, as in (14).” left out, “Where indicated, statistical analyses were performed using Student's non-paired t-test (two-tailed), and significance (*) was considered to be attained when P was <0.05.” left out
Exudates from selected time intervals were collected and cell-free supernatants assessed for the presence of these murine cytokines. […] Neither IL-10 nor IL-13 was detected within the pouch exudates.

[9] = system: IL-1β messenger RNA; assay: TNFα-triggered IL-1β gene expression in PMN (Northern blot); conditions: 100 nM compound plus TNFα 10 ng/ml; 6 h
Procedure: PMN were incubated with either 0.1% ethanol (vehicle) or 15 R/S-methyl-LXA4 at 10, 100, and 1000 nM, in the presence or absence of TNFα (10 ng/ml), for 6 h at 37° C. Northern blots were performed in order to detect IL-1β messenger RNA.
PMN were exposed to increasing concentrations of 15 R/S-methyl-LXA4, 16-phenoxy-LXA4 or native LXA4 in the presence of TNFα (10 ng/ml) or vehicle alone.

[10] = target: LXA4 receptor (Homo sapiens, UniProt P25090); assay: Involvement of LXA4 receptor in TNFα-stimulated IL-1β release (anti-LXA4-R antibodies)
Procedure: PMN were incubated with either IgG purified from pre-immune serum (50 μg/ml) or anti-LXA4 receptor (50 μg/ml) for 1 h at 4° C., then exposed to agonists for 12 h at 37° C. and 5% CO2. Values are expressed as mean±SD from an experiment performed in triplicate, which is representative of three distinct experiments each performed with different donors (*p<0.01).
PMN were incubated with ˜50 μg/ml of either preimmune protein-A purified IgG or IgG directed against LXA4-R for 1 h at 4° C. prior to exposure to TNFα (10 ng/ml) and 15 R/S-methyl-LXA4 (100 nM).

[11] = injected alone, 4 h post-injection, TNFα 10 ng or compound 25 nmoles
[12] = 25 mnoles, air pouch exudates (FIG. 6)
[13] = compound 25 nmoles plus TNFα 10 ng, 4 h post-injection

LXA4 receptor, sequence (P25090 whole entry): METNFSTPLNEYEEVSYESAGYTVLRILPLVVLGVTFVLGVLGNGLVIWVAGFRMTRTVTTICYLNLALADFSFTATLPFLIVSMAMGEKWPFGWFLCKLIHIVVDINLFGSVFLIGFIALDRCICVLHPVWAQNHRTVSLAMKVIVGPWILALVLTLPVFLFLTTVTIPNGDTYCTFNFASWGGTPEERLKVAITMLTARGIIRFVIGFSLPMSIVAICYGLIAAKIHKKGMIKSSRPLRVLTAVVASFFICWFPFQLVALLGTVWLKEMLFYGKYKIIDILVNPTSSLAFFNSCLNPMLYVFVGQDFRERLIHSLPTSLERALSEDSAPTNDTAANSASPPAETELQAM

COC(=O)CCCC(O)C(O)C=CC=CC=CC=CC(O)COc1ccccc1 (stereo not drawn) [16-phenoxy-LXA4, 16 phenoxy-lipoxin A4 methyl ester]
potency relative to native LXA4 as inhibitor of TNFα-stimulated superoxide generation [1]: approximately three times more potent | inhibition of TNFα-stimulated superoxide anion generation [1]: 93.7±3.2% | inhibition of IL-1β release ([2]; TNFα 10 ng/ml): approximately 40%

GM-CSF: human recombinant GM-CSF, agonist of IL-1β release
approximate EC50 for increase in IL-1β levels in supernatants ([3]; agonist GM-CSF): ~10 U/ml

CCCCC[C@H](O)/C=C/C=C\C=C\C=C\[C@@H](O)[C@@H](O)CCCC(=O)O (relative stereo) [LXA4, 5S, 6R, 15S-trihydroxy-7,9,13-trans-11-cis-eicosatetraenoic acid, reference compound]
inhibition of TNFα-stimulated superoxide anion generation [1]: 34.3±2.3% | inhibition of FMLP-stimulated O2- production [4]: neither LXA4 nor its analogs inhibit | inhibition of PMA-stimulated O2- production ([4]; PMA 100 nM, n=3): neither LXA4 nor its analogs inhibit | inhibition of IL-1β release ([2]; TNFα 10 ng/ml): comparable | effect on TNFα-induced IL-1β release ([2]; LXA4 100 nM, TNFα 10 ng/ml, 20 h (FIG. 2A)): specifically inhibited

TNFα [reference compound]
approximate EC50 for increase in IL-1β levels in supernatants ([3]; agonist TNFα): ~10 ng/mL | time to maximal detectable amounts of MIP-2 ([5]; TNFα-injected pouches): ≤ 90 min | time to maximal detectable amounts of IL-1β ([6]; TNFα-injected pouches): ≤ 90 min | Number of leukocytes present in the pouch: Eosinophils/Basophils [7, 11]: 0.30 ± 0.01 x 10^6 | Number of leukocytes present in the pouch: Monocytes/Macrophages [7, 11]: 0.20 ± 0.01 x 10^6 | Number of leukocytes present in the pouch: Neutrophils [7, 11]: 2.40 ± 0.10 x 10^6 | time of maximal accumulation of leukocytes in the air pouch ([7]; murine TNFα 10 ng/ml): 4 h

CCCCCC(C)(O)/C=C/C=C\C=C\C=C\[C@@H](O)[C@@H](O)CCCC(=O)OC (stereo partly drawn) [15 R/S-methyl-LXA4, 15R/S-methyl-LXA4-methyl ester]
potency relative to native LXA4 as inhibitor of TNFα-stimulated superoxide generation [1]: approximately three times more potent | inhibition of TNFα-stimulated superoxide anion generation [1]: 81.3±14.1% | inhibition of TNFα-induced IL-1β release ([2]; 10 nM compound, TNFα 10 ng/ml (FIG. 2B)): clear statistically significant inhibition | time within which inhibition of IL-1β release was evident ([2]; 10 nM compound, more prominent after 24 h): ≤ 6 h | inhibition of IL-1β release ([2]; TNFα 10 ng/ml): approximately 60% | inhibition of TNFα-stimulated MIP-2 release [5, 12]: 48% | MIP-2 release, compound alone in the air pouch ([5]; without TNFα): did not stimulate | inhibition of TNFα-stimulated IL-1β release [6, 12]: 30% | IL-1β release, compound alone in the air pouch ([6]; without TNFα): did not stimulate | appearance of IL-4 within the exudates [8]: stimulated the appearance of IL-4 | time at which inhibition of leukocyte recruitment was evident ([7]; 25 nmoles): 1 h | inhibition of TNFα-stimulated recruitment of leukocytes to the air pouch ([7]; 25 nmoles into pouch, murine TNFα 10 ng/ml (FIG. 5)): 62% | leukocyte infiltration at 8 h ([7]; 8 h, 25 nmoles (FIG. 5, insert)): remained significantly reduced | reduction in leukocyte infiltration ([7]; between 2 h and 4 h, 25 nmoles): more than 60% | Number of leukocytes present in the pouch: Eosinophils/Basophils [7, 13]: 0.13 ± 0.01 x 10^6 | Number of leukocytes present in the pouch: Monocytes/Macrophages [7, 13]: 0.10 ± 0.01 x 10^6 | Number of leukocytes present in the pouch: Neutrophils [7, 13]: 0.98 ± 0.10 x 10^6 | Percent inhibition of TNFα-induced infiltration: Eosinophils/Basophils [7, 13]: (56.0%) | Percent inhibition of TNFα-induced infiltration: Monocytes/Macrophages [7, 13]: (50%) | Percent inhibition of TNFα-induced infiltration: Neutrophils [7, 13]: (59.1%) | Number of leukocytes present in the pouch: Eosinophils/Basophils [7, 11]: 0.03 ± 0.01 x 10^6 | Number of leukocytes present in the pouch: Monocytes/Macrophages [7, 11]: 0.14 ± 0.01 x 10^6 | Number of leukocytes present in the pouch: Neutrophils [7, 11]: 0.25 ± 0.01 x 10^6 | leukocyte infiltration after injection of the analog alone ([7]; without TNFα): did not cause a significant leukocyte infiltration | mononuclear cell influx, compound alone ([7]; without TNFα, 4 h): small but statistically significant increase | decrease of IL-1β messenger RNA levels compared to TNFα alone [9]: approximately 60% | inhibition of IL-1β release ([10]; 100 nM compound, TNFα 10 ng/ml, 12 h (FIG. 4)): about 50% | IL-1β appearance when added together with anti-LXA4-R antibodies in the presence of TNFα ([10]; 100 nM compound, antibodies ~50 μg/ml): did not further inhibit IL-1β appearance | stimulation of IL-1β appearance within supernatants, agent alone ([10]; without TNFα): neither anti-LXA4-R antibodies nor 15 R/S-LXA4 alone stimulated significant amounts of IL-1β
